# Results: PubChem BioAssay (NCI)
#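 In this assay, cells in 96-well plates receive the compound at five concentrations for 48 hours. Endpoints are linearly interpolated between the surrounding concentrations. GI50 = concentration required for 50% inhibition of growth. TGI denotes the concentration required for complete inhibition of growth.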
# Legend:
# Assay in all cases: NCI-60 cell line screen, 48 h
# [1] = system: 786-0 renal
# [2] = system: A498 renal
# [3] = system: A549 NSCLC
# [4] = system: ACHN renal
# [5] = system: BT-549 breast
# [6] = system: CAKI-1 renal
# [7] = system: CCRF-CEM leukemia
# [8] = system: COLO 205 colon
# [9] = system: DU-145 prostate
# [10] = system: EKVX NSCLC
# [11] = system: HCC-2998 colon
# [12] = system: HCT-116 colon
# [13] = system: HCT-15 colon
# [14] = system: HL-60(TB) leukemia
# [15] = system: HOP-62 NSCLC
# [16] = system: HOP-92 NSCLC
# [17] = system: HS 578T breast
# [18] = system: HT29 colon
# [19] = system: IGROV1 ovarian
# [20] = system: K-562 leukemia
# [21] = system: KM12 colon
# [22] = system: LOX IMVI melanoma
# [23] = system: M14 melanoma
# [24] = system: MALME-3M melanoma
# [25] = system: MCF7 breast
# [26] = system: MDA-MB-231 breast
# [27] = system: MDA-MB-435
# [28] = system: MOLT-4 leukemia
# [29] = system: NCI-H226 lung
# [30] = system: NCI-H23 lung
# [31] = system: NCI-H460 lung
# [32] = system: NCI-H522 lung
# [33] = system: NCI/ADR-RES ovarian
# [34] = system: OVCAR-3 ovarian
# [35] = system: OVCAR-4 ovarian
# [36] = system: OVCAR-5 ovarian
# [37] = system: OVCAR-8 ovarian
# [38] = system: PC-3 prostate
# [39] = system: RPMI-8226 leukemia
# [40] = system: SF-268 CNS
# [41] = system: SF-295 CNS
# [42] = system: SF-539 CNS
# [43] = system: SK-MEL-2 melanoma
# [44] = system: SK-MEL-28 melanoma
# [45] = system: SK-MEL-5 melanoma
# [46] = system: SK-OV-3 ovarian
# [47] = system: SN12C renal
# [48] = system: SNB-19 CNS
# [49] = system: SNB-75 CNS
# [50] = system: SR leukemia
# [51] = system: SW-620 colon
# [52] = system: T-47D breast
# [53] = system: TK-10 renal
# [54] = system: U251 CNS
# [55] = system: UACC-257 melanoma
# [56] = system: UACC-62 melanoma
# [57] = system: UO-31 renal
compound,measurement,setting,value
CN1CCN(c2ccc(Nc3nc(NCCCNS(=O)(=O)c4ccc(Cl)cc4)c4sccc4n3)cc2)CC1,GI50,[1],2120 nM
same,TGI,[1],6.29 µM
same,GI50,[2],20.4 µM
same,TGI,[2],34.8 µM
same,GI50,[3],18.7 µM
same,TGI,[3],61.7 µM
same,GI50,[4],11.2 µM
same,TGI,[4],23.2 µM
same,GI50,[5],3.12 µM
same,TGI,[5],14.4 µM
same,GI50,[6],15.5 µM
same,TGI,[6],28.8 µM
same,GI50,[7],4.22 µM
same,TGI,[7],> 100 µM
same,GI50,[8],15.6 µM
same,TGI,[8],37.8 µM
same,GI50,[9],14 µM
same,TGI,[9],28.9 µM
same,GI50,[10],14.1 µM
same,TGI,[10],30 µM
same,GI50,[11],7.31 µM
same,TGI,[11],20 µM
same,GI50,[12],2300 nM
same,TGI,[12],6.99 µM
same,GI50,[13],3.08 µM
same,TGI,[13],12.4 µM
same,GI50,[14],2120 nM
same,TGI,[14],5.11 µM
same,GI50,[15],19.6 µM
same,TGI,[15],37 µM
same,GI50,[16],2160 nM
same,TGI,[16],16.2 µM
same,GI50,[17],13.8 µM
same,TGI,[17],44.7 µM
same,GI50,[18],3.75 µM
same,TGI,[18],19.4 µM
same,GI50,[19],10.7 µM
same,TGI,[19],22.8 µM
same,GI50,[20],2950 nM
same,TGI,[20],> 100 µM
same,GI50,[21],16.4 µM
same,TGI,[21],51.1 µM
same,GI50,[22],1690 nM
same,TGI,[22],3.48 µM
same,GI50,[23],2000 nM
same,TGI,[23],3.94 µM
same,GI50,[24],2120 nM
same,TGI,[24],3.91 µM
same,GI50,[25],6.47 µM
same,TGI,[25],21.1 µM
same,GI50,[26],4.94 µM
same,TGI,[26],17.3 µM
same,GI50,[27],9.17 µM
same,TGI,[27],21.2 µM
same,GI50,[28],3.58 µM
same,TGI,[28],33.4 µM
same,GI50,[29],12 µM
same,TGI,[29],24.9 µM
same,GI50,[30],14.1 µM
same,TGI,[30],29.1 µM
same,GI50,[31],8.01 µM
same,TGI,[31],22 µM
same,GI50,[32],11.8 µM
same,TGI,[32],27 µM
same,GI50,[33],19.4 µM
same,TGI,[33],58.3 µM
same,GI50,[34],6.81 µM
same,TGI,[34],35.9 µM
same,GI50,[35],12.2 µM
same,TGI,[35],25.1 µM
same,GI50,[36],13.3 µM
same,TGI,[36],27.4 µM
same,GI50,[37],8.57 µM
same,TGI,[37],53.8 µM
same,GI50,[38],9.62 µM
same,TGI,[38],26.4 µM
same,GI50,[39],3.04 µM
same,TGI,[39],9.67 µM
same,GI50,[40],11.5 µM
same,TGI,[40],34.9 µM
same,GI50,[41],12.2 µM
same,TGI,[41],27 µM
same,GI50,[42],1820 nM
same,TGI,[42],3.55 µM
same,GI50,[43],17.2 µM
same,TGI,[43],33.1 µM
same,GI50,[44],2380 nM
same,TGI,[44],6.22 µM
same,GI50,[45],10.2 µM
same,TGI,[45],22 µM
same,GI50,[46],29 µM
same,TGI,[46],60.9 µM
same,GI50,[47],12.9 µM
same,TGI,[47],25.5 µM
same,GI50,[48],10.6 µM
same,TGI,[48],22.4 µM
same,GI50,[49],13.5 µM
same,TGI,[49],26.5 µM
same,GI50,[50],2830 nM
same,TGI,[50],> 100 µM
same,GI50,[51],5.2 µM
same,TGI,[51],18.6 µM
same,GI50,[52],22.1 µM
same,TGI,[52],54.1 µM
same,GI50,[53],19.6 µM
same,TGI,[53],35.7 µM
same,GI50,[54],4.06 µM
same,TGI,[54],23.2 µM
same,GI50,[55],2390 nM
same,TGI,[55],6.44 µM
same,GI50,[56],3 µM
same,TGI,[56],11.1 µM
same,GI50,[57],13 µM
same,TGI,[57],25.7 µM
